Measurements as given in patent US7199148B2, “Broadspectrum substituted oxindole sulfonamide HIV protease inhibitors” (priority 2002, dated 2007).
Where two headings read alike, the source gives them in different places.

Assays:
Format in all cases: cell-based
HIV strain F = test: Antiviral spectrum, clinically isolated mutant strain F; conditions: FR=EC50(mutant strain)/EC50(HIV-1 strain LAI)
Description: (§1) HIV- or mock-infected MT4 cells were incubated for five days in the presence of various concentrations of the inhibitor. At the end of the incubation period, all HIV-infected cells have been killed by the replicating virus in the control cultures in the absence of any inhibitor. Cell viability is measured by measuring the concentration of MTT, a yellow, water soluble tetrazolium dye that is converted to a purple, water insoluble formazan in the mitochondria of living cells only. Upon solubilization of the resulting formazan crystals with isopropanol, the absorbance of the solution is monitored at 540 nm. The values correlate directly to the number of living cells remaining in the culture at the completion of the five day incubation. The inhibitory activity of the compound was monitored on the virus-infected cells and was expressed as EC50 and EC90. These values represent the amount of the compound required to protect 50% and 90%, respectively, of the cells from the cytopathogenic effect of the virus. The toxicity of the compound was measured on the mock-infected cells and was expressed as CC50, which represents the concentration of compound required to inhibit the growth of the cells by 50%. The selectivity index (SI) (ratio CC50/EC50) is an indication of the selectivity of the anti-HIV activity of the inhibitor. Wherever results are reported as e.g. pEC50 or pCC50 values, the result is expressed as the negative logarithm of the result expressed as EC50 or CC50 respectively.
(§2) Because of the increasing emergence of drug resistant HIV strains, the present compounds were tested for their potency against clinically isolated HIV strains harboring several mutations (Table 2 and 3). These mutations are associated with resistance to protease inhibitors and result in viruses that show various degrees of phenotypic cross-resistance to the currently commercially available drugs such as for instance saquinavir, ritonavir, nelfinavir, indinavir and amprenavir.
(§3) As a measure of the broad spectrum activity of the present compounds, the fold resistance (FR), defined as FR=EC50(mutant strain)/EC50(HIV-1 strain LAI), was determined.

HIV strain D = test: Antiviral spectrum, clinically isolated mutant strain D; conditions: FR=EC50(mutant strain)/EC50(HIV-1 strain LAI)
Description: as §1, §2, §3

HIV strain C = test: Antiviral spectrum, clinically isolated mutant strain C; conditions: FR=EC50(mutant strain)/EC50(HIV-1 strain LAI)
Description: as §1, §2, §3

HIV strain A = test: Antiviral spectrum, clinically isolated mutant strain A; conditions: FR=EC50(mutant strain)/EC50(HIV-1 strain LAI)
Description: as §1, §2, §3

HIV strain B = test: Antiviral spectrum, clinically isolated mutant strain B; conditions: FR=EC50(mutant strain)/EC50(HIV-1 strain LAI)
Description: as §1, §2, §3

HIV-1 strain LAI = test: Cellular anti-HIV assay, MT4 cells, MTT read-out, wild type strain
Description: as §1, with “The compounds of the present invention were examined for anti-viral activity in a cellular assay. […] The cellular assay was performed according to the following procedure. HIV- or” for “HIV- or”

[1] = Toxicity on mock-infected MT4 cells (MTT); conditions: human
Description: as §1, §3

HIV strain E = test: Antiviral spectrum, clinically isolated mutant strain E; conditions: FR=EC50(mutant strain)/EC50(HIV-1 strain LAI)
Description: as §1, §2, §3

[2] = Human immunodeficiency virus 1, MT4, Table 3, wild type HIV-LAI strain, read-out: WT (pEC50) (converted)
[3] = Human immunodeficiency virus 1, 120 h, Table 1, MT4 cells, five days incubation, HIV-1 strain LAI, read-out: pEC50 (converted)

SMILES	F (FR towards mutant F) (HIV strain F)	D (FR towards mutant D) (HIV strain D)	C (FR towards mutant C) (HIV strain C)	A (FR towards mutant A) (HIV strain A)	B (FR towards mutant B) (HIV strain B)	EC50 (HIV-1 strain LAI; [2]) [nM]	CC50 at 5 days [1] [nM]	E (FR towards mutant E) (HIV strain E)	EC50 (HIV-1 strain LAI; [3]) [nM]	EC50 (HIV-1 strain LAI; Human immunodeficiency virus 1, MT4, read-out: WT (pEC50) (converted)) [nM]
CC(C)CN(C[C@@H](O)[C@H](Cc1ccccc1)NC(=O)OC1COC2OCCC12)S(=O)(=O)c1ccc2c(c1)CC(=O)N2 (stereo in doubt) [Compound 21, Hexahydrofuro[2,3-b]furan-3-yl N-(1-benzyl-2-hydroxy-3-{isobutyl[(2-oxo-2,3-dihydro-1H-indol-5-yl)sulfonyl]amino}propyl}carbamate]	1.2	0.33	0.7	1.0	1.1	158	100000	0.56		
CCC(C=C1C(=O)Nc2ccc(S(=O)(=O)N(CC(C)C)CC(O)C(Cc3ccccc3)NC(=O)OC3COC4OCCC34)cc21)CC (stereo not shown) [Compound 5, (1-Benzyl-3-{[3-(2-ethyl-butylidene)-2-oxo-2,3-dihydro-1H-indole-5-sulfonyl]-isobutyl-amino}-2-hydroxy-propyl)-carbamic acid hexahydro-furo[2,3-b]furan-3-yl ester]	6.5	2.0	2.0	1.9	8.3	15.8	63100	4.2	16.6	
CC(C)CN(CC(O)C(Cc1ccccc1)NC(=O)OC1COC2OCCC12)S(=O)(=O)c1ccc2c(c1)C(=Cc1cccn1C)C(=O)N2 (stereo not shown) [Compound 4, (1-Benzyl-2-hydroxy-3-{isobutyl-[3-(1-methyl-1H-pyrrol-2-ylmethylene)-2-oxo-2,3-dihydro-1H-indole-5-sulfonyl]-amino}-propyl)-carbamic acid hexahydro-furo[2,3-b]furan-3-yl ester]	2.0	1.9	1.7	2.3	1.9	15.8	100000	2.4	15.5	
CC(C)C=C1C(=O)Nc2ccc(S(=O)(=O)N(CC(C)C)CC(O)C(Cc3ccccc3)NC(=O)OC3COC4OCCC34)cc21 (stereo not shown) [Compound 6, {1-Benzyl-2-hydroxy-3-[isobutyl-(3-isobutylidene-2-oxo-2,3-dihydro-1H-indole-5-sulfonyl)-amino]-propyl}-carbamic acid hexahydro-furo[2,3-b]furan-3-yl ester]	7.9	1.4	1.6	2.5	7.1	20	50100	2.0	19.5	
Cc1ccc(C=C2C(=O)Nc3ccc(S(=O)(=O)N(CC(C)C)CC(O)C(Cc4ccccc4)NC(=O)OC4COC5OCCC45)cc32)s1 (stereo not shown) [Compound 3, (1-Benzyl-2-hydroxy-3-{isobutyl-[3-(5-methyl-thiophen-2-ylmethylene)-2-oxo-2,3-dihydro-1H-indole-5-sulfonyl]-amino}-propyl)-carbamic acid hexahydro-furo[2,3-b]furan-3-yl ester]	6.8	3.0	2.6	3.0	3.8	12.6	100000	7.1	11.5	
CC(C)CN(CC(O)C(Cc1ccccc1)NC(=O)OC1COC2OCCC12)S(=O)(=O)c1ccc2c(c1)C(=Cc1ccc[nH]1)C(=O)N2 (stereo not shown) [Compound 1, (1-Benzyl-2-hydroxy-3-{isobutyl-[2-oxo-3-(1H-pyrrol-2-ylmethylene)-2,3-dihydro-1H-indole-5-sulfonyl]-amino}-propyl)-carbamic acid hexahydrofuro[2,3-b]furan-3-yl ester]	10	2.0	2.1	4.3	8.7	3.16	12600	6.2	3.16	
CC(C)CN(CC(O)C(Cc1ccccc1)NC(=O)OC1COC2OCCC12)S(=O)(=O)c1ccc2c(c1)C(=Cc1ccc(C(=O)O)cc1)C(=O)N2 (stereo not shown) [Compound 20, 4-(5-{[3-(Hexahydro-furo[2,3-b]furan-3-yloxycarbonylamino)-2-hydroxy-4-phenyl-butyl]-isobutyl-sulfamoyl}-2-oxo-1,2-dihydro-indol-3-ylidenemethyl)-benzoic acid]									891	
Cc1ccc(C=C2C(=O)Nc3ccc(S(=O)(=O)N(CC(C)C)CC(OP(=O)(O)O)C(Cc4ccccc4)NC(=O)OC4COC5OCCC45)cc32)o1 (stereo not shown) [Compound 19, (1-Benzyl-3-{isobutyl-[3-(5-methyl-furan-2-ylmethylene)-2-oxo-2,3-dihydro-1H-indole-5-sulfonyl]-amino}-2-phosphonooxy-propyl)-carbamic acid hexahydro-furo[2,3-b]furan-3-yl ester]									302	
COc1ccc(C=C2C(=O)Nc3ccc(S(=O)(=O)N(CC(C)C)CC(O)C(Cc4ccccc4)NC(=O)OC4COC5OCCC45)cc32)cc1 (stereo not shown) [Compound 8, (1-Benzyl-2-hydroxy-3-{isobutyl-[3-(4-methoxy-benzylidene)-2-oxo-2,3-dihydro-1H-indole-5-sulfonyl]-amino}-propyl)-carbamic acid hexahydro-furo[2,3-b]furan-3-yl ester]	1.7	1.5	1.5	1.7	5.0	20	63100	2.0	20	
CC(C)CN(CC(O)C(Cc1ccccc1)NC(=O)OC1COC2OCCC12)S(=O)(=O)c1ccc2c(c1)/C(=C\c1ccco1)C(=O)N2 (stereo not shown) [Compound 7, Hexahydrofuro[2,3-b]furan-3-yl N-{1-benzyl-3-[({3-[(E)-2-furylmethylidene]-2-oxo-2,3-dihydro-1H-indol-5-yl}sulfonyl) (isobutyl)amino]-2-hydroxypropyl}carbamate]	1.9	2.4	1.7	1.8	2.6	20	79400	5.9	19.5	
Cc1ccc(C=C2C(=O)Nc3ccc(S(=O)(=O)N(CC(C)C)CC(O)C(Cc4ccccc4)NC(=O)OC4COC5OCCC45)cc32)o1 (stereo not shown) [Compound 2, (1-Benzyl-2-hydroxy-3-{isobutyl-[3-(5-methyl-furan-2-ylmethylene)-2-oxo-2,3-dihydro-1H-indole-5-sulfonyl]-amino}-propyl)-carbamic acid hexahydro-furo[2,3-b]furan-3-yl ester]	3.9	3.8	1	1.7	3.6		20000	3.1	8.51	9.77
